Measurements as given in patent EP4775570A1, “CYP11A1 INHIBITOR, PREPARATION METHOD THEREFOR AND USE THEREOF” (Shenzhen Zhongge Biological Technology Co., Ltd., priority 2023, dated 2025).

Test system: VCaP castration-resistant prostate cancer subcutaneous transplant tumor model
Assay: In vivo pharmacodynamic study in a VCaP castration-resistant prostate cancer subcutaneous transplant tumor model
Set-up: species or system SCID-Beige mice
Conditions: 30mg/kg BID oral + prednisone 0.6mg/kg QD; for tumor inhibitory activity (in words): compared with ODM-208
Experimental: Animals: experimental male SCID-Beige mice, 6-8-weeks old or 18-22g, provided by Beijing Vital River Laboratory Animal Technology Co., Ltd.
Experiment procedures: all experimental animals were kept within specific-pathogen-free animal barrier facility, and allowed 3 days of adaptation before the experiment began. VCaP tumor cells were in vitro cultured as monolayer in DMEM complete medium (with 10% fetal bovine serum and 1% penicillin & streptomycin) at 37°C in air containing 5% CO2. Tumor cells were routinely passaged 2-3 times a week, and cells in exponential growth phase were collected and counted for tumor cell inoculation. 10x10^6 VCaP tumor cells were resuspended in 0.1ml PBS, thoroughly mixed with 0.1ml matrigel, and then inoculated subcutaneously on the right flank of each mouse to form a tumor. The tumor-bearing mice were allowed to develop to an average tumor volume of around 200mm^3 and underwent castration surgery. The tumor volumes of all mice were measured after one week of castration surgery. Suitable tumor-bearing mice were selected and assigned randomly into the following groups: blank control group, prednisone (0.6mg/kg, QD) group, abiraterone (33.73mg/kg, QD) + prednisone (0.6mg/kg, QD) group, ODM-208 (30mg/kg, BID) + prednisone (0.6mg/kg, QD) group, and the compound of the present disclosure (30mg/kg, BID) + prednisone (0.6mg/kg, QD) group. Animals in blank control group were orally administered with vehicles (0.5%MC+0.5%Tween80 and 0.5%CMCNa), and the animals in other groups were orally administered with corresponding compound. The experiment lasted for 32 days, and during the experiment, the animals in each group were measured for tumor volume and body weight twice a week.

Structure (SMILES) | weight loss (in words) | animal weight loss (32 days) [%] | tumor inhibition rate TGI (castrated tumor-bearing mice, 32 days) [%] | tumor inhibitory activity (in words)
COc1cc(CN2Cc3ccccc3C2)ccc1CCC1CCN(S(C)(=O)=O)CC1 [compound 53] | without significant weight loss | -2 | 112 | significantly better than ODM-208
Cn1c(CN2Cc3ccccc3C2)c(F)cc(CCC2CCN(S(C)(=O)=O)CC2)c1=O [compound 72] | without significant weight loss |  |  | significantly better than ODM-208
